Results: patent publication US11578087B2, “Oxaborole esters and uses thereof” (priority 2016, dated 2023)

Experiments:
[1] = tested on: IL3000 T. congolense (drug sensitive) strain; assay: In vitro Alamar Blue 72 h drug sensitivity assay for T. congolense; format: cell-based, Trypanosoma congolense; conditions: Trypanosoma congolense, 72 h, bloodstream form, 69 h + 3 h Resazurin, 34° C., read-out: IC50: I Org. Growth T. congolense 3 d
Method in brief: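 IC50 values derive from 11-point curves averaged over at least three independent runs, with fluorescence read at 536 nm excitation and 588 nm emission. Resazurin was added for a final 3 h after 69 h compound exposure of bloodstream forms (HMI medium, 20% bovine serum, 34° C, 5% CO2).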

[2] = tested on: T. cruzi amastigote (Td Tomato-modified) in Vero cells; assay: In vitro IC50 measurement of T. cruzi amastigote killing using Td Tomato-modified T. cruzi; format: cell-based; conditions: Trypanosoma cruzi, 72 h, fluorescence, read-out: IC50: I Org. amastigote Growth T. cruzi 3 d
Method in brief: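 IC50/IC90 came from nonlinear regression of Day 3 minus Day 0 fluorescence (544/612 nm), correcting for input parasites. Final compound concentrations spanned 5 nM–5 uM on Td Tomato T. cruzi-infected Vero cells, 72 h at 37 °C.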

Compound	IC50 [1] [µM]	IC50 [2] [µM]
CNCc1cccc(COC(=O)[C@@H](NC(=O)c2ccc3c(c2C)B(O)OC3)C(C)C)c1 [Example 6-122, 3-((Methylamino)methyl)benzyl (1-hydroxy-7-methyl-1,3-dihydrobenzo[c][1,2]oxaborole-6-carbonyl)-L-valinate]	0.01 to 5	≥ 1
Cc1c(C(=O)N[C@H](C(=O)OCc2cnc3ccccc3n2)C(C)C)ccc2c1B(O)OC2 [Example 6-123, Quinoxalin-2-ylmethyl (1-hydroxy-7-methyl-1,3-dihydrobenzo[c][1,2]oxaborole-6-carbonyl)-L-valinate]	< 0.0005	≤ 0.02
Cc1c(C(=O)N[C@H](C(=O)OCc2nccs2)C(C)C)ccc2c1B(O)OC2 [Example 6-124, Thiazol-2-ylmethyl (1-hydroxy-7-methyl-1,3-dihydrobenzo[c][1,2]oxaborole-6-carbonyl)-L-valinate]	< 0.0005	0.021 to 0.999
Cc1c(C(=O)N[C@H](C(=O)OCc2ccc3ccccc3n2)C(C)C)ccc2c1B(O)OC2 [Example 6-125, Quinolin-2-ylmethyl (1-hydroxy-7-methyl-1,3-dihydrobenzo[c][1,2]oxaborole-6-carbonyl)-L-valinate]	< 0.0005	0.021 to 0.999
Cc1c(C(=O)N[C@H](C(=O)OCc2cccc(N3CCNCC3)c2)C(C)C)ccc2c1B(O)OC2 [Example 6-126, 3-(Piperazin-1-yl)benzyl (1-hydroxy-7-methyl-1,3-dihydrobenzo[c][1,2]oxaborole-6-carbonyl)-L-valinate]	0.00051 to 0.00999	≥ 1
Cc1c(C(=O)N[C@H](C(=O)OCc2cscn2)C(C)C)ccc2c1B(O)OC2 [Example 6-128, Thiazol-4-ylmethyl (1-hydroxy-7-methyl-1,3-dihydrobenzo[c][1,2]oxaborole-6-carbonyl)-L-valinate]	< 0.0005	0.021 to 0.999
Cc1c(C(=O)N[C@H](C(=O)OCc2ccc(CN3CCOCC3)cc2)C(C)C)ccc2c1B(O)OC2 [Example 6-130, 4-(Morpholinomethyl)benzyl (1-hydroxy-7-methyl-1,3-dihydrobenzo[c][1,2]oxaborole-6-carbonyl)-L-valinate]	< 0.0005	0.021 to 0.999
Cc1c(C(=O)N[C@H](C(=O)OCc2ccc(CN3CCCC3)cc2)C(C)C)ccc2c1B(O)OC2 [Example 6-131, 4-(Pyrrolidin-1-ylmethyl)benzyl (1-hydroxy-7-methyl-1,3-dihydrobenzo[c][1,2]oxaborole-6-carbonyl)-L-valinate]	< 0.0005	0.021 to 0.999
Cc1c(C(=O)N[C@H](C(=O)OC2CCCC2)C(C)C)ccc2c1B(O)OC2 [Example 6-132, Cyclopentyl (1-hydroxy-7-methyl-1,3-dihydrobenzo[c][1,2]oxaborole-6-carbonyl)-L-valinate]	< 0.0005	≤ 0.02
Cc1c(C(=O)N[C@H](C(=O)OC2CCCCC2)C(C)C)ccc2c1B(O)OC2 [Example 6-133, Cyclohexyl (1-hydroxy-7-methyl-1,3-dihydrobenzo[c][1,2]oxaborole-6-carbonyl)-L-valinate]	< 0.0005	≤ 0.02
Cc1c(C(=O)N[C@H](C(=O)OC2CCOCC2)C(C)C)ccc2c1B(O)OC2 [Example 6-134, Tetrahydro-2H-pyran-4-yl (1-hydroxy-7-methyl-1,3-dihydrobenzo[c][1,2]oxaborole-6-carbonyl)-L-valinate]	< 0.0005	≤ 0.02
Cc1c(C(=O)N[C@H](C(=O)OC2COC2)C(C)C)ccc2c1B(O)OC2 [Example 6-135, Oxetan-3-yl (1-hydroxy-7-methyl-1,3-dihydrobenzo[c][1,2]oxaborole-6-carbonyl)-L-valinate]	< 0.0005	0.021 to 0.999
Cc1c(C(=O)N[C@H](C(=O)OC2CCC2)C(C)C)ccc2c1B(O)OC2 [Example 6-136, Cyclobutyl (1-hydroxy-7-methyl-1,3-dihydrobenzo[c][1,2]oxaborole-6-carbonyl)-L-valinate]	< 0.0005	≤ 0.02
Cc1c(C(=O)N[C@H](C(=O)OCc2ncc3ccccc3n2)C(C)C)ccc2c1B(O)OC2 [Example 6-137, Quinazolin-2-ylmethyl (1-hydroxy-7-methyl-1,3-dihydrobenzo[c][1,2]oxaborole-6-carbonyl)-L-valinate]	< 0.0005	≤ 0.02
Cc1c(C(=O)N[C@H](C(=O)OCc2c[nH]cn2)C(C)C)ccc2c1B(O)OC2 [Example 6-138, (1H-Imidazol-4-yl)methyl (1-hydroxy-7-methyl-1,3-dihydrobenzo[c][1,2]oxaborole-6-carbonyl)-L-valinate]	0.01 to 5	≥ 1
COCC(COC)OC(=O)[C@@H](NC(=O)c1ccc2c(c1C)B(O)OC2)C(C)C [Example 6-139, 1,3-Dimethoxypropan-2-yl (1-hydroxy-7-methyl-1,3-dihydrobenzo[c][1,2]oxaborole-6-carbonyl)-L-valinate]	0.01 to 5	0.021 to 0.999

Compound	IC50 [1] [µM]	IC50 [2] [µM]
Cc1c(C(=O)N[C@H](C(=O)O[C@H]2CCOC2)C(C)C)ccc2c1B(O)OC2 [Example 6-140, (S)-Tetrahydrofuran-3-yl (1-hydroxy-7-methyl-1,3-dihydrobenzo[c][1,2]oxaborole-6-carbonyl)-L-valinate]	0.00051 to 0.00999	0.021 to 0.999
Cc1c(C(=O)N[C@H](C(=O)O[C@@H]2CCOC2)C(C)C)ccc2c1B(O)OC2 [Example 6-141, (R)-Tetrahydrofuran-3-yl (1-hydroxy-7-methyl-1,3-dihydrobenzo[c][1,2]oxaborole-6-carbonyl)-L-valinate]	< 0.0005	0.021 to 0.999
Cc1c(C(=O)N[C@H](C(=O)OC2CCN(C)CC2)C(C)C)ccc2c1B(O)OC2 [Example 6-142, 1-Methylpiperidin-4-yl (1-hydroxy-7-methyl-1,3-dihydrobenzo[c][1,2]oxaborole-6-carbonyl)-L-valinate]	< 0.0005	0.021 to 0.999
Cc1c(C(=O)N[C@H](C(=O)OCc2ncc[nH]2)C(C)C)ccc2c1B(O)OC2 [Example 6-143, (1H-Imidazol-2-yl)methyl (1-hydroxy-7-methyl-1,3-dihydrobenzo[c][1,2]oxaborole-6-carbonyl)-L-valinate]	0.01 to 5	≥ 1
Cc1c(C(=O)N[C@H](C(=O)OC[C@H]2COC(C)(C)O2)C(C)C)ccc2c1B(O)OC2 [Example 6-144, ((R)-2,2-Dimethyl-1,3-dioxolan-4-yl)methyl (1-hydroxy-7-methyl-1,3-dihydrobenzo[c][1,2]oxaborole-6-carbonyl)-L-valinate]	0.00051 to 0.00999	≤ 0.02
Cc1c(C(=O)N[C@H](C(=O)OC[C@@H]2COC(C)(C)O2)C(C)C)ccc2c1B(O)OC2 [Example 6-145, ((S)-2,2-Dimethyl-1,3-dioxolan-4-yl)methyl (1-hydroxy-7-methyl-1,3-dihydrobenzo[c][1,2]oxaborole-6-carbonyl)-L-valinate]	0.00051 to 0.00999	≤ 0.02
Cc1c(C(=O)N[C@H](C(=O)OC2CCNCC2)C(C)C)ccc2c1B(O)OC2 [Example 6-146, Piperidin-4-yl (1-hydroxy-7-methyl-1,3-dihydrobenzo[c][1,2]oxaborole-6-carbonyl)-L-valinate]	0.01 to 5	≥ 1
Cc1c(C(=O)N[C@H](C(=O)OC[C@@H](O)CO)C(C)C)ccc2c1B(O)OC2 [Example 6-148, (S)-2,3-dihydroxypropyl (1-hydroxy-7-methyl-1,3-dihydrobenzo[c][1,2]oxaborole-6-carbonyl)-L-valinate]	0.01 to 5	≥ 1
Cc1c(C(=O)N[C@H](C(=O)OCC(CO)CO)C(C)C)ccc2c1B(O)OC2 [Example 6-149, 3-hydroxy-2-(hydroxymethyl)propyl (1-hydroxy-7-methyl-1,3-dihydrobenzo[c][1,2]oxaborole-6-carbonyl)-L-valinate]	0.01 to 5	≥ 1
Cc1c(C(=O)N[C@H](C(=O)OCC2COC2)C(C)C)ccc2c1B(O)OC2 [Example 6-150, Oxetan-3-ylmethyl (1-hydroxy-7-methyl-1,3-dihydrobenzo[c][1,2]oxaborole-6-carbonyl)-L-valinate]	0.00051 to 0.00999	0.021 to 0.999
Cc1c(C(=O)N[C@H](C(=O)OCC(F)(F)F)C(C)C)ccc2c1B(O)OC2 [Example 6-151, 2,2,2-Trifluoroethyl (1-hydroxy-7-methyl-1,3-dihydrobenzo[c][1,2]oxaborole-6-carbonyl)-L-valinate]	< 0.0005	≤ 0.02
COCC1(COC(=O)[C@@H](NC(=O)c2ccc3c(c2C)B(O)OC3)C(C)C)CCOCC1 [Example 6-152, (4-(Methoxymethyl)tetrahydro-2H-pyran-4-yl)methyl (1-hydroxy-7-methyl-1,3-dihydrobenzo[c][1,2]oxaborole-6-carbonyl)-L-valinate]	< 0.0005	0.021 to 0.999
Cc1c(C(=O)N[C@H](C(=O)OCC(F)(F)C(F)(F)F)C(C)C)ccc2c1B(O)OC2 [Example 6-153, 2,2,3,3,3-Pentafluoropropyl (1-hydroxy-7-methyl-1,3-dihydrobenzo[c][1,2]oxaborole-6-carbonyl)-L-valinate]	< 0.0005	≤ 0.02
Cc1c(C(=O)N[C@H](C(=O)OCC2CCC(F)(F)CC2)C(C)C)ccc2c1B(O)OC2 [Example 6-154, (4,4-Difluorocyclohexyl)methyl (1-hydroxy-7-methyl-1,3-dihydrobenzo[c][1,2]oxaborole-6-carbonyl)-L-valinate]	< 0.0005	≤ 0.02
Cc1c(C(=O)N[C@H](C(=O)OC2CCC(F)(F)CC2)C(C)C)ccc2c1B(O)OC2 [Example 6-155, 4,4-Difluorocyclohexyl (1-hydroxy-7-methyl-1,3-dihydrobenzo[c][1,2]oxaborole-6-carbonyl)-L-valinate]	< 0.0005	≤ 0.02
